Reference: US6875886B2, “Modified PSMA ligands and uses related thereto” (Beth Israel Deaconess Medical Center, Inc., priority 2001, dated 2005)
Where a SMILES comes first, the peptide text is derived from it.

Legend:
PSMA = PSMA (Homo sapiens, UniProt Q04609); assay: 3H-NAAG assay of PSMA enzymatic activity; type: biochemical
Description: To determine the effects of several PSMA ligands and modified PSMA ligands (β-AG/78) on PSMA activity, ^3H-NAAG assay (Slusher et al., J. Biol. Chem., 1990, 265: 21297-301) was used to measure the activity of PSMA at the presence or absence of several PSMA ligands.
β-AG/78 (FIG. 5, bottom panel) is a conjugate of β-AG and the near-infrared fluorophore IRDye78. The conjugate can be synthesized using a similar scheme as shown in Example 1, and the product can be purified using either TLC (not shown) or HPLC, as shown in FIG. 6. As a control, IRDye78 was also tested. The results were shown as percentage of remaining PSMA activity as compared to PSMA activity without any additives, over a range of inhibitor concentrations.

NAALADase = NAALADase with NAAG as substrate; cited from earlier work

Sequence of PSMA (Q04609 whole entry): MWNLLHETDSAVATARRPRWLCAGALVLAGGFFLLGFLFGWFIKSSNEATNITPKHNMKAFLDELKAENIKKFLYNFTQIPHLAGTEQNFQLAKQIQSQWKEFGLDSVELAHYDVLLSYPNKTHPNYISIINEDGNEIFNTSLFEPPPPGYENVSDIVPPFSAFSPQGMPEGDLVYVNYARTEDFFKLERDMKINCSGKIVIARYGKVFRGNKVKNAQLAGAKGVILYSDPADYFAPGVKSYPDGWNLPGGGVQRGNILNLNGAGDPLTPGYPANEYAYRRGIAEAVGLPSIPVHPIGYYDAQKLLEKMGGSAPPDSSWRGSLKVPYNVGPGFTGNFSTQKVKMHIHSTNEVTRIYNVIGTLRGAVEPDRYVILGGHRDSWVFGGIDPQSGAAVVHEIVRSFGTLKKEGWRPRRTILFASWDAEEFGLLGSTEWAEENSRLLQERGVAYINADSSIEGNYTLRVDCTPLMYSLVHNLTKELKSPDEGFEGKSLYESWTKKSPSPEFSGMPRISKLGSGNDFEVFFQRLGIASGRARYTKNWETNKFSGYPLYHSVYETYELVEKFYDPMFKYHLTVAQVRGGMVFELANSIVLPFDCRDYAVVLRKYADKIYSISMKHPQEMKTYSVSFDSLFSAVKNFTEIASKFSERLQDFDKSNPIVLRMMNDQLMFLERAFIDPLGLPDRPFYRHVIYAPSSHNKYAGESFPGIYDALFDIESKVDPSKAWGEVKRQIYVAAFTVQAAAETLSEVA

N[C@@H](CC(=O)N[C@@H](CCC(=O)O)C(=O)O)C(=O)O [β-AG, β-Asp-Glu]
inhibitory potency relative to comparator (PSMA; comparison of inhibition curves): slightly less potent than that of beta-N-acetyl-AG (β-NAAG)
inhibition of PSMA enzymatic activity (PSMA; percentage of remaining PSMA activity over a range of inhibitor concentrations): is indeed an inhibitor of PSMA enzymatic activity

CC(=O)N[C@@H](CC(=O)O)C(=O)N[C@@H](CCC(=O)O)C(=O)O [NAAG, N-acetyl-aspartyl-glutamate] (Ac-Asp-Glu-OH)
Km (NAALADase): 0.54 µM
